# Test system: Oryzias latipes
# Assay: Ichthyotoxicity against Oryzias latipes after 1 hr
# Format: organism-based
# Conditions: in vivo
SMILES,LC100 [ppm],Activity
C=C1CC/C=C(\C)CC[C@@H]2/C(=C\CC=C(C)C)COC(=O)[C@@H]12 [DEOXYXENIOLIDE B],15,–
C=C1CC[C@@H]2O[C@@]2(C)CC[C@@H]2/C(=C\C=C\C(C)(C)O)COC(=O)[C@@H]12,–,Non-toxic
C=C1CC[C@@H]2O[C@@]2(C)CC[C@@H]2/C(=C\CC=C(C)C)COC(=O)[C@@H]12,–,Non-toxic
